# Results published in patent publication US20200316087A1, “NOVEL COMBINATION THERAPY FOR ANXIETY DISORDERS, EPILEPSY, AND PAIN” (priority 2017, published 2020).
# Columns and labels:
# PTZ seizure threshold = test: Pentylenetetrazole (PTZ, i.v.)-induced seizure threshold; type: in vivo, rats; conditions: for PTZ Threshold to Criteria: MED for producing ≥2× PTZ seizure threshold at baseline; for PTZ Threshold Poteny (MED): lowest dose with statistically significant effect, PTZ i.v.; for PTZ Threshold Poteny (MED) / effect on dose of PTZ required to induce convulsions: rats; for effect on dose of PTZ required to induce convulsions: PTZ i.v. infusion, pretreatment 30 min
# Experimental: Male […] Sprague-Dawley rats (Indianapolis, Ind.) were randomly assigned to treatment groups and dosed with vehicle (vehicle=1% carboxymethyl cellulose) with diazepam (0.1, 0.3, or 1 mg/kg) or test compound (3, 10, 30, or 60 mg/kg) 30 minutes prior to testing. Rats were placed in a restrainer and a winged infusion needle was inserted into the lateral tail vein. Intravenous infusion with 10 mg/ml PTZ at a rate of 0.5 ml/min was initiated until a clonic convulsion occurred, and the time to clonic convulsion was recorded in sec or a maximum of 4 min was recorded. Following infusion, rats are euthanized. The dose of PTZ required to elicit a clonic convulsion was calculated using the infusion rate, concentration of PTZ, time to clonic convulsion, and animal weight.
# [1] = tested on: electroshock-induced seizures; test: Mouse electroshock-induced seizure model; type: in vivo; conditions: mice; for Electroshock to Criteria: MED producing maximal protection (0% seizures); for Electroshock (minimal effective dose, MED): lowest dose with statistically significant protection vs vehicle
# Experimental: This assay detects effects of compounds that produce generalized seizures and those that dampen seizure spread. Male, CD1 mice (Taconic Farms) were studied at weights of 21-32 g. Mice=10/dose) were used with Wahlquist Model H stimulator with 0.2 sec stimulation with corneal electrodes. […] Mice were euthanized immediately following the test. Tonic extension was used as the primary endpoint.
# (§1) For the in vivo assays, minimal effective doses (MED) were calculated in mg/kg. MED was defined as the lowest dose administered that produced statistically significant protection compared to vehicle control in the anticonvulsant assays. The MED, or minimal toxic dose (MTD) for motor impairment, was the minimal dose required to produce statistically-significant impairment in motor performance. Doses tested are shown in the figures and tables and are generally dosed in ½ log increments. The protective index (PT) was calculated at the MTD/MED.
# [2] = tested on: motor performance on an inverted screen; test: Rat inverted screen test (motor impairment); conditions: rats
# From the text: (§2) The motor effects of Diazepam and KRM-II-81 were studied on the inverted screen. The inverted screen test is used to measure whether or not a test compound induces muscle relaxation. When a test subject is placed on a wire screen which is then inverted, the reaction is to climb to the opposite side so they are no longer hanging upside down.
# (§3) Male, Sprague Dawley rats (Harlan Sprague Dawley, Indianapolis, Ind.) were used and weighed 90-110 g when evaluated in experiments. […] Rats were placed onto the top of a wire screen, which was then inverted so that the rats were hanging upside down.
# (§4) Male Sprague-Dawley rats (n=5) were dosed i.p. (vehicle=1% carboxymethyl cellulose) with diazepam (3, 10, or 30 mg/kg), KRM-II-81 (10, 30, or 60 mg/kg) or HZ-166 (30 mg/kg) 30 minutes prior to testing. Rats were placed onto the top of a wire screen, which was then inverted so that the rats were hanging upside down. […] Results were analyzed using ANOVA (Dunnett's test: *P<0.05).
# as §1
# [3] = Rat inverted screen test (motor impairment); conditions: male, Sprague-Dawley, rat, in vivo
# From the text: as §2, §3, §4, §1
# [4] = tested on: seizures in amygdala kindled rats; test: Basolateral amygdala kindling; type: in vivo; conditions: for After-Discharge Duration to Criteria: MED for producing after-discharge duration ≤30 sec; for After-Discharge Threshold to Criteria: MED for producing after-discharge threshold ≥3; for Seizure Severity to Criteria: MED for producing seizure severity score ≤2; for After-Discharge Duration Potency (MED) / After-Discharge Threshold Potency (MED) / Seizure Severity Poteny (MED) / effect on adjusted after-discharge threshold (ADT) / effect on after-discharge duration (ADD) / effect on seizure severity score / kindling measures / Seizure free scores (seizure severity=0): amygdala kindled rats; for Seizure free scores (seizure severity=0): groups of 8
# Experimental: Seizure kindling models evaluate effects of drugs on the sensitization of the nervous system to seizure induction. In this test, drugs were evaluated for their ability to impact seizure parameters in rats that were fully kindled by daily electrical stimulation of their amygdala. Valproic acid was used as a positive control. Experiments were conducted using the general procedures of Zwart et al. (J. Pharmacol. Exp. Ther., 2014, 351:124-133). A bipolar electrode for electrical stimulation and EEG recording was stereotaxically implanted into one hemisphere of the basolateral amygdala (AP −2.2, ML −4.8, DV −8.5 mm, relative to bregma) of male Wistar rats. After post-operative recovery, electrical kindling begins, where a subthreshold constant current (400 μA, 1 ms, monophasic square-wave pulses, 60 Hz for 1 sec) is given once a day Monday-Friday for about 4-6 weeks until a rat is fully kindled. A fully kindled rat has experienced 10 consecutive stage 5 seizures or 10 of its last 12 were stage 5 according to the Racine Scale.
# Twelve fully kindled rats were assigned to this study, and eight rats were selected and randomized to initial compound treatment groups from baseline after discharge threshold (ADT), seizure severity score, and after discharge duration (ADD). […] On test day, rats were dosed 30 min prior to beginning stimulation. After the pre-treatment, rats were stimulated using an ascending staircase sequence beginning at 10 μA and increasing in log unit steps of 10, 16, 25, 40, 65, 100, 160, 250, and 400 μA. Animals were stimulated until they were assigned a Seizure Severity Score for a visually observably seizure or they reached the 400 μA threshold limit. ADD was determined following testing. ADT was the current that induced a seizure; measurements were scale-adjusted to capture the stimulation scale change required to observe a seizure from the previous baseline to the ADT scored on test day. […] The average scale adjusted ADT was approximately 0.63 μA in vehicle treated rats.
# Racine score of behavioral response to stimulation: 0=no behavioral response; 1=immobility, staring and/or facial clonus; 2=head nodding, jaw clonus, and/or tongue protrusion; 3=unilateral forelimb clonus; 4=bilateral forelimb clonus and/or rearing; 5=bilateral forelimb clonus with rearing and loss of balance.
# After-Discharge Duration (ADD) is the duration of the first after-discharge.
# ADT, ADD, and severity scores were analyzed by ANOVA. Seizure severity data was also analyzed by the nonparametric Skillings-Mack test, a generalization of the Friedman test for one-way repeated measures designs. Posthoc tests when reported were either by Dunnett's method (seizure severity) or using Wilcoxon sign rank tests (ADT and ADD). Valproic acid, used as a positive control was not used in ANOVA calculations.
# [5] = tested on: immobility in forced-swim test; test: Forced-swim assay; type: in vivo, mice; conditions: male NIH Swiss mice, i.p., 30 min prior
# Experimental: Male NIH Swiss mice (Envigo, Indianapolis, Ind.) were studied. Mice were placed in clear plastic cylinders (diameter: 10 cm; height: 25 cm) filled with 6 cm of water (22-25° C.) for six min. […] The duration of immobility during the last four min of the six min test period was scored. A mouse was recorded as immobile when floating motionless or making only those movements necessary to keep its head above water.
SMILES,PTZ Threshold to Criteria (PTZ seizure threshold),PTZ Threshold Poteny (MED) (PTZ seizure threshold),effect on dose of PTZ required to induce convulsions (PTZ seizure threshold),Electroshock to Criteria [1],"Electroshock (minimal effective dose, MED) [1]",protection against electroshock-induced seizures [1],After-Discharge Duration to Criteria [4],After-Discharge Threshold to Criteria [4],Seizure Severity to Criteria [4],After-Discharge Duration Potency (MED) [4],After-Discharge Threshold Potency (MED) [4],Seizure Severity Poteny (MED) [4],effect on adjusted after-discharge threshold (ADT) [4],effect on after-discharge duration (ADD) [4],effect on seizure severity score / kindling measures [4],Seizure free scores (seizure severity=0) [4],immobility in forced-swim assay [5],also measured
"C#Cc1ccc2c(c1)C(c1ccccc1)=NCc1c(-c3cnco3)ncn1-2 [KRM-II-82, 5-(8-ethynyl-6-phenyl-4H-benzo[f]imidazo[1,5-a][1,4]diazepin-3-yl)oxazole]",30 mg/kg,10 mg/kg,increased the dose of PTZ required to induce convulsions,30 mg/kg,30 mg/kg,fully prevented,>30 mg/kg,30 mg/kg,>30 mg/kg,>30 mg/kg,10 mg/kg,10 mg/kg,significantly increased,trend for a significant effect,trend toward efficacy,1/8,significantly decreased immobility time,"effect on motor performance ([2]; up to 30 mg/kg, inverted screen): without significant effect on motor performance; MTD at 60 seconds ([3]; intraperitoneal): 150 mg/kg"
"C#Cc1ccc2c(c1)C(c1ccccn1)=NCc1c(-c3cnco3)ncn1-2 [KRM-II-81, 5-(8-ethynyl-6-(pyridin-2-yl)-4H-benzo[f]imidazo[1,5-a][1,4]diazepin-3-yl)oxazole]",30 mg/kg,10 mg/kg,increased the dose of PTZ required to induce convulsions,30 mg/kg,10 mg/kg,fully prevented,10 mg/kg,10 mg/kg,10 mg/kg,10 mg/kg,10 mg/kg,10 mg/kg,significantly increased,significant decreases,most efficacious and potent,7/8,"moderate, dose-dependent decrease in immobility","dose of PTZ required to induce convulsions (PTZ seizure threshold; pretreated with 10 mg/kg of KRM-II-81, vehicle baseline 35.1±1.2 mg/kg): 71 mg/kg; muscle relaxation on inverted screen (result in words) ([2]; i.p., 30 min prior, KRM-II-81 10-60 mg/kg, HZ-166 30 mg/kg): Neither HZ-166 nor KRM-II-81 induced significant muscle relaxation; dose at which signs of muscle relaxation began to appear ([2]; i.p., inverted screen): 60 mg/kg; ED50 at 30 min ([3]; ip): 121 mg/kg"
